US10040798B2, “Pyrrolopyridazine inhibitors of IRAK4 activity” (MERCK SHARP & DOHME CORP., priority 2015, dated 2018)
Where a name gives a salt, the structure may show the parent alone.

Biological target: IRAK4 (Homo sapiens (Human), UniProt Q9NWZ3)
Assay: IRAK4 Kinase Assay (IMAP fluorescence polarization)
Type: biochemical
Conditions: 0.5 nM GST tagged IRAK4, 100 μM ATP, 30 minutes at 25° C., IMAP FP
Method: The kinase activity of IRAK4 is determined by its ability to catalyze the phosphorylation of a fluorescent polypeptide substrate. The extent of phosphorylation is measured using the IMAP technology (Molecular Devices) where the phosphorylated fluorescent substrate binds to the large M (III)-based nanoparticles which reduces the rotational speed of the substrate and thus increases its fluorescent polarization (FP).
20 μL reaction mixture contains 10 mM TriHCl, pH 7.2, 0.5 nM GST tagged IRAK4 (SignalChem), 100 nM fluorescent peptide substrate (RP7030, Molecular Devices), 100 μM ATP, 1 mM DDT, 1 mM MgCl2, and 0.01% Tween 20. The reaction is initiated by the addition of ATP. After incubation for 30 minutes at 25° C., 60 μL of Progressive IMAP Reagent (Molecular Devices) is added to stop the reaction. Change in RP7030's FP is determined by a FP reader (Analyst HT, LJL BioSystems).

Chain of IRAK4 (Q9NWZ3 whole entry): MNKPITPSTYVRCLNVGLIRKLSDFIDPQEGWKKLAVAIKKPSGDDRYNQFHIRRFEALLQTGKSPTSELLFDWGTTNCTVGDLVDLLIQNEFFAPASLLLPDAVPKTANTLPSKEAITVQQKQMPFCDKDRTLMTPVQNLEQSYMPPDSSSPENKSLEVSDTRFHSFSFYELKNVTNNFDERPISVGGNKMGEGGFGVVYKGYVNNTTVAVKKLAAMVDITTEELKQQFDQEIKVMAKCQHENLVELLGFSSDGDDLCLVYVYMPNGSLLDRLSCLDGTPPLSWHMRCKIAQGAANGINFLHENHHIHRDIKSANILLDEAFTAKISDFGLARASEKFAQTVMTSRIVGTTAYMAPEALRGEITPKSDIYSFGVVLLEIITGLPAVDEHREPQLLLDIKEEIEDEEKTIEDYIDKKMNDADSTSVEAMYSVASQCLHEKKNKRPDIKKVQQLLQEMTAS

IC50 [nM] | SMILES
20 | Cn1cc(NC(=O)c2ccc3ccc(N4CCCNCC4)nn23)c(Cl)n1 [Example 23, N-(3-chloro-1-methyl-1H-pyrazol-4-yl)-2-(1,4-diazepan-1-yl)pyrrolo[1,2-b]pyridazine-7-carboxamide trifluoroacetate]
2 | Cn1cc(NC(=O)c2ccc3ccc(NC4CCCCNC4)nn23)c(C(F)F)n1 (stereo not shown) [Example 24, 2-(azepan-3-ylamino)-N-[3-(difluoromethyl)-1-methyl-1H-pyrazol-4-yl]pyrrolo[1,2-b]pyridazine-7-carboxamide trifluoroacetate]
1 | Cn1cc(NC(=O)c2ccc3ccc(N[C@@H]4CCCC[C@@H]4N)nn23)c(Cl)n1 [Example 25, 2-{[(1R,2S)-2-aminocyclohexyl]amino}-N-(3-chloro-1-methyl-1H-pyrazol-4-yl)pyrrolo[1,2-b]pyridazine-7-carboxamide trifluoroacetate]
28 | Cn1cc(NC(=O)c2ccc3ccc(N4CC5CCC4CN5)nn23)c(Cl)n1 (stereo not shown) [Example 26, N-(3-chloro-1-methyl-1H-pyrazol-4-yl)-2-(2,5-diazabicyclo[2.2.2]oct-2-yl)pyrrolo[1,2-b]pyridazine-7-carboxamide trifluoroacetate]
24 | Cn1cc(NC(=O)c2ccc3ccc(N4CC5CCC4CN5)nn23)c(Br)n1 (stereo not shown) [Example 27, N-(3-bromo-1-methyl-1H-pyrazol-4-yl)-2-(2,5-diazabicyclo[2.2.2]oct-2-yl)pyrrolo[1,2-b]pyridazine-7-carboxamide trifluoroacetate]
34 | Cn1cc(NC(=O)c2ccc3ccc(N[C@@H]4CCCC(F)(F)[C@@H]4N)nn23)c(C(F)F)n1 [Example 28, 2-{[(1R,2R)-2-amino-3,3-difluorocyclohexyl]amino}-N-[3-(difluoromethyl)-1-methyl-1H-pyrazol-4-yl]pyrrolo[1,2-b]pyridazine-7-carboxamide trifluoroacetate]
0.7 | Cn1cc(NC(=O)c2ccc3ccc(N[C@@H]4CCCC[C@@H]4N)nn23)c(C#N)n1 [Example 29, 2-{[(1R,2S)-2-aminocyclohexyl]amino}-N-(3-cyano-1-methyl-1H-pyrazol-4-yl)pyrrolo[1,2-b]pyridazine-7-carboxamide trifluoroacetate]
27 | Cn1cc(NC(=O)c2ccc3ccc(N4CCCNCC4)nn23)c(C#N)n1 [Example 30, N-(3-cyano-1-methyl-1H-pyrazol-4-yl)-2-(1,4-diazepan-1-yl)pyrrolo[1,2-b]pyridazine-7-carboxamide trifluoroacetate]
25 | Cn1cc(NC(=O)c2ccc3ccc(N4CC5CCC4CN5)nn23)c(C#N)n1 (stereo not shown) [Example 31, N-(3-cyano-1-methyl-1H-pyrazol-4-yl)-2-(2,5-diazabicyclo[2.2.2]oct-2-yl)pyrrolo[1,2-b]pyridazine-7-carboxamide trifluoroacetate]
275 | Cn1cc(NC(=O)c2ccc3ccc(N[C@@H]4CCCC(F)(F)[C@@H]4N)nn23)c(Br)n1 [Example 32, 2-{[(1R,2R)-2-amino-3,3-difluoro-cyclohexyl]amino}-N-(3-bromo-1-methyl-1H-pyrazol-4-yl)pyrrolo[1,2-b]pyridazine-7-carboxamide trifluoroacetate]
136 | Cn1ncc(NC(=O)c2ccc3ccc(N[C@@H]4CCCC[C@@H]4N)nn23)c1C(F)(F)F [Example 45, 2-{[(1R,2S)-2-aminocyclohexyl]amino}-N-[1-methyl-5-(trifluoromethyl)-1H-pyrazol-4-yl]pyrrolo[1,2-b]pyridazine-7-carboxamide trifluoroacetate]
138 | Cn1cc(NC(=O)c2ccc3ccc(N[C@@H]4CCCC(F)(F)[C@@H]4N)nn23)c(Cl)n1 [Example 48, 2-{[(1R,2R)-2-amino-3,3-difluoro-cyclohexyl]amino}-N-(3-chloro-1-methyl-1H-pyrazol-4-yl)pyrrolo[1,2-b]pyridazine-7-carboxamide acetate]
43 | Cn1cc(NC(=O)c2ccc3ccc(N[C@@H]4CCCC(F)(F)[C@@H]4N)nn23)c(C#N)n1 [Example 52, 2-{[(1R,2R)-2-amino-3,3-difluoro-cyclohexyl]amino}-N-(3-cyano-1-methyl-1H-pyrazol-4-yl)pyrrolo[1,2-b]pyridazine-7-carboxamide trifluoroacetate]
55 | Cn1cc(NC(=O)c2ccc3ccc(N[C@@H]4CCCC[C@@H]4O)nn23)c(Cl)n1 [Example 53, N-(3-chloro-1-methyl-1H-pyrazol-4-yl)-2-{[(1R,2S)-2-hydroxycyclohexyl]amino}pyrrolo[1,2-b]pyridazine-7-carboxamide trifluoroacetate]
640 | CC(C)(C)n1cc(NC(=O)c2ccc3ccc(N[C@@H]4CCCC[C@@H]4O)nn23)c(C(F)F)n1 [Example 54, N-[1-tert-butyl-3-(difluoromethyl)-1H-pyrazol-4-yl]-2-{[(1R,2S)-2-hydroxycyclohexyl]amino}pyrrolo[1,2-b]pyridazine-7-carboxamide trifluoroacetate]
53 | CC(C)n1cc(NC(=O)c2ccc3ccc(N[C@@H]4CCCC[C@@H]4O)nn23)c(C(F)F)n1 [Example 55, N-[3-(difluoromethyl)-1-(1-methylethyl)-1H-pyrazol-4-yl]-2-{[(1R,2S)-2-hydroxycyclohexyl]amino}pyrrolo[1,2-b]pyridazine-7-carboxamide trifluoroacetate]
95 | O=C(Nc1cscc1C(F)F)c1ccc2ccc(N3CC4CCC3CN4)nn12 (stereo not shown) [Example 56, 2-(2,5-diazabicyclo[2.2.2]oct-2-yl)-N-[4-(difluoromethyl)thiophen-3-yl]pyrrolo[1,2-b]pyridazine-7-carboxamide trifluoroacetate]
3960 | O=C(Nc1ccccc1Br)c1ccc2ccc(N3CCCNCC3)nn12 [Example 57, N-(2-bromophenyl)-2-(1,4-diazepan-1-yl)pyrrolo[1,2-b]pyridazine-7-carboxamide trifluoroacetate]
11 | N[C@H]1CCCC[C@H]1Nc1ccc2ccc(C(=O)Nc3ccccc3Br)n2n1 [Example 58, 2-{[(1R,2S)-2-aminocyclohexyl]amino}-N-(2-bromo-phenyl)pyrrolo[1,2-b]pyridazine-7-carboxamide trifluoroacetate]
1200 | O=C(Nc1ccccc1Cl)c1ccc2ccc(N3CCCNCC3)nn12 [Example 59, N-(2-chlorophenyl)-2-(1,4-diazepan-1-yl)pyrrolo[1,2-b]pyridazine-7-carboxamide trifluoroacetate]
548 | O=C(Nc1cscc1Br)c1ccc2ccc(N3CCCNCC3)nn12 [Example 60, N-(4-bromothiophen-3-yl)-2-(1,4-diazepan-1-yl)pyrrolo[1,2-b]pyridazine-7-carboxamide trifluoroacetate]
1660 | O=C(Nc1ccccc1Br)c1ccc2ccc(N3CC4CCC3CN4)nn12 (stereo not shown) [Example 61, N-(2-bromophenyl)-2-(2,5-diazabicyclo[2.2.2]oct-2-yl)pyrrolo[1,2-b]pyridazine-7-carboxamide trifluoroacetate]
415 | O=C(Nc1cscc1Br)c1ccc2ccc(N3CC4CCC3CN4)nn12 (stereo not shown) [Example 62, N-(4-bromothiophen-3-yl)-2-(2,5-diazabicyclo[2.2.2]oct-2-yl)pyrrolo[1,2-b]pyridazine-7-carboxamide trifluoroacetate]
7 | N[C@H]1CCCC[C@H]1Nc1ccc2ccc(C(=O)Nc3cscc3Br)n2n1 [Example 63, 2-{[(1R,2S)-2-aminocyclohexyl]amino}-N-(4-bromothiophen-3-yl)pyrrolo[1,2-b]pyridazine-7-carboxamide trifluoroacetate]
611 | O=C(Nc1ccccc1Cl)c1ccc2ccc(N3CC4CCC3CN4)nn12 (stereo not shown) [Example 64, N-(2-chlorophenyl)-2-(2,5-diazabicyclo[2.2.2]oct-2-yl)pyrrolo[1,2-b]pyridazine-7-carboxamide trifluoroacetate]
6 | N[C@H]1CCCC[C@H]1Nc1ccc2ccc(C(=O)Nc3ccccc3Cl)n2n1 [Example 65, 2-{[(1R,2S)-2-aminocyclohexyl]amino}-N-(2-chlorophenyl)pyrrolo[1,2-b]pyridazine-7-carboxamide trifluoroacetate]
636 | O=C(Nc1ccsc1Cl)c1ccc2ccc(N3CCCNCC3)nn12 [Example 66, N-(2-chlorothiophen-3-yl)-2-(1,4-diazepan-1-yl)pyrrolo[1,2-b]pyridazine-7-carboxamide trifluoroacetate]
197 | N#Cc1sccc1NC(=O)c1ccc2ccc(N3CCCNCC3)nn12 [Example 67, N-(2-cyanothiophen-3-yl)-2-(1,4-diazepan-1-yl)pyrrolo[1,2-b]pyridazine-7-carboxamide trifluoroacetate]
190 | N#Cc1cscc1NC(=O)c1ccc2ccc(N3CCCNCC3)nn12 [Example 68, N-(4-cyanothiophen-3-yl)-2-(1,4-diazepan-1-yl)pyrrolo[1,2-b]pyridazine-7-carboxamide trifluoroacetate]

SMILES | IC50 [nM]
Cn1cc(NC(=O)c2ccc3ccc(N4CC5CCC(C4)N5)nn23)c(C(F)F)n1 [Example 46, 2-(3,8-diazabicyclo[3.2.1]oct-3-yl)-N-[3-(difluoromethyl)-1-methyl-1H-pyrazol-4-yl]pyrrolo[1,2-b]pyridazine-7-carboxamide trifluoroacetate] | 1
Cn1cc(NC(=O)c2ccc3ccc(N4CC5CCC(C4)N5)nn23)c(C(F)(F)F)n1 [Example 47, 2-(3,8-diazabicyclo[3.2.1]oct-3-yl)-N-[1-methyl-3-(trifluoromethyl)-1H-pyrazol-4-yl]pyrrolo[1,2-b]pyridazine-7-carboxamide trifluoroacetate] | 9
